Measurements taken from US20220031654A1, “Standardized Bioflavonoid Composition for Regulation of Homeostasis of Host Defense Mechanism” (priority 2020, published 2022).
Values joined by “and” are separate entries in the source; they are usually repeats but may differ in a detail not shown here. Identical values can stand only once.

Assays:
[1] = system: prostaglandin endoperoxide synthase; conditions: Kalkbrenner et al. 1992; read-out: IC50, inhibition of prostaglandin endoperoxide synthase; cited from earlier work
COX-2 = conditions: commercially available pure (+)-catechin; Noreen et al. 1998; cited from earlier work
COX-1 = conditions: (+)-catechin isolated from the bark of Ceiba pentandra; Noreen et al. 1998; read-out: IC50, COX-1 inhibition; cited from earlier work
[2] = system: cox-2 gene transcription in human colon cancer DLD-1 cells; conditions: Mutoh et al. 2000, read-out: IC50, suppression of cox-2 gene transcription; cited from earlier work
HMGB1 = assay: Hyperoxia plus PA infection, extracellular HMGB1 in lung lavage fluids; type: in vivo, mice; conditions: RES 50 mg/kg, UP446 250 mg/kg
Excerpt: Accumulation of extracellular HMGB1 in the airways can compromise innate immunity, leading to an impaired ability to clear invading pathogens and apoptotic neutrophils. This can subsequently cause acute respiratory tract infections, lung injury and even death (Entezari et al., 2012; Patel et al., 2013). To determine whether UP446-attenuated acute lung injury in bacterially infected mice exposed to hyperoxia is due to its impact on the accumulation of extracellular HMGB1 in the airways, the levels of HMGB1 were measured in the lung lavage fluids. As shown previously, prolonged exposure of these mice to hyperoxia followed by microbial infection increased the accumulation of HMGB1 in the airways. […] This elevation can be reduced by pretreatment with either resveratrol (RES) or UP446. […] This correlates with the significant enhanced ability of UP446 to improve host defense mechanisms against microbial infection in the respiratory system.

Pseudomonas aeruginosa [3] = assay: Hyperoxia plus PA infection, bacterial load in the airways; conditions: RES 50 mg/kg, UP446 250 mg/kg; hyperoxia and PA
Protocol: To investigate the effects of regulating natural host defense homeostasis, mice were treated with the bioflavonoid composition, UP446, at 250 mg/kg orally for seven days prior to being exposed to >90% oxygen for 48 hours (with continued UP446 treatment) before being inoculated with microbial Pseudomonas aeruginosa (PA).

BAL total protein = assay: Hyperoxia plus PA infection, total protein in lung lavage fluid; conditions: RES 50 mg/kg, UP446 250 mg/kg; >90% oxygen 48 hours, 24 hours after PA
Protocol: To investigate the effects of regulating natural host defense homeostasis, mice were treated with the bioflavonoid composition, UP446, at 250 mg/kg orally for seven days prior to being exposed to >90% oxygen for 48 hours (with continued UP446 treatment) before being inoculated with microbial Pseudomonas aeruginosa (PA). Mice were euthanized 24 hours after bacterial inoculation, the lungs were lavaged, and total protein content was determined from the lung lavage fluid.

Pseudomonas aeruginosa [4] = assay: Hyperoxia plus PA infection, bacterial load in lung homogenate; type: in vivo, mice; conditions: RES 50 mg/kg, UP446 250 mg/kg; hyperoxia and PA
CRP = conditions: UP446 250 mg/kg; SB 500 mg/kg
Protocol: (§1) In this study, we treated Sprague Dawley rats with the test materials orally for 7 days before model induction with LPS. On the 8th day, an hour after oral treatment, LPS was instilled intratracheally (i.t.) at 10 mg/kg dissolved in 0.1 mL/100 g PBS to each rat. The normal control rats received the same volume i.t. of PBS only.
We sacrificed surviving animals 24 hours after intratracheal LPS administration. At necropsy, the bronchoalveolar lavage (BAL) was collected by intratracheal injection of 1.5 mL PBS into the right lobe of the lung, followed by a gentle aspiration at least 3 times. Pooled, recovered fluid was centrifuged at 1,500 rpm for 10 min at 4° C., and was used to measure cytokines (e.g. IL-6) and pulmonary protein levels.
The presence of CRP in rat BAL diluted 1:1,000 was measured using the C-Reactive Protein (PTX1) Rat ELISA kit from Abcam (product #: ab108827) as follows: 1:1,000 diluted BAL was added to a microplate coated with CRP antibody. After 2 hours on a plate shaker at room temperature, CRP in BAL was bound to the plate and the plate was thoroughly washed. […] After developing for 10 minutes at room temperature, a stop solution was added, and the absorbance was read at 450 nm. The concentration of CRP was calculated based on the absorbance readings of an CRP standard curve.

[5] = system: LPS-induced endotoxemia and sepsis; assay: LPS-induced sepsis model, composition versus its constituents, Colby synergy; type: in vivo, CD-1 mice; conditions: for Mortality rate / Survival rate: SB 500, UP894-II 250, RM405 200, RM406 50 mg/kg
Protocol: On the 8th day, mice were injected intraperitoneally (i.p.) with 25 mg/kg LPS dissolved in PBS at 10 mL/kg. Mice in the UP894-II-treated group received a daily dose of UP894-II at 250 mg/kg. All mice continued to receive the treatment daily for the duration of study, which was completed on the 6th day post LPS injection. Following a median lethal dose of LPS (25 mg/kg) by i.p. administration, animals are expected to develop sepsis within a few hours. If untreated, mice would start to die within 24 hours. Animals were observed hourly. In the current study, we monitored the mice for 6 days after LPS injection.
For the blending of these plant extracts to have unexpected synergy, the observed inhibition needs to be greater than the calculated value.
The survival rate was calculated as: 100-[(deceased mice/total number of mice)×100]%. *p≤0.05

[6] = system: LPS-induced endotoxemia and sepsis; assay: LPS-induced sepsis model, survival (UP446 study); type: in vivo, CD-1 mice; conditions: UP446 250 mg/kg, Sodium Butyrate 500 mg/kg oral
Protocol: CD-1 mice and Sprague Dawley rats were purchased from a USDA approved vendor. Eight weeks old male CD-1 mice and SD rats were purchased form Charles River Laboratories, Inc. (Wilmington, Mass.). Animals were acclimated upon arrival and used for the study. They were housed in a temperature-controlled room (71-72° F.) on a 12-hour light-dark cycle and provided with feed and water ad libitum.
This model used survival rate of animals as the end point measurement (Wang et al., 1999). Lipopolysaccharide (LPS) is an integral component of the outer membrane of gram-negative bacteria and a major contributing factor in the initiation of a generalized inflammatory process that may lead to endotoxin shock. It is a state mediated principally by macrophages/monocytes and is attributed to excessive production of several early phase cytokines such as TNF-α, IL-1, IL-6 and gamma interferon (IFN-γ) as well as a late-stage mediator, HMGB1. Following a median lethal dose of LPS (25 mg/kg) administration dissolved in phosphate-buffered saline (PBS; Lifeline, Lot #07641), animals develop endotoxemia and HMGB1 would be detected in the serum at 8 hours and reach to a peak and plateau levels from 16 to 32 hours after LPS. […] In the current study, we monitored the mice for 4 days after LPS injection. […]
The survival rate was calculated as: 100-[(deceased mice/total number of mice)×100]%.

IL-1β = assay: LPS-induced acute lung injury, serum IL-1β ELISA; type: in vivo, Sprague Dawley rats; conditions: UP446 250 mg/kg; SB 500 mg/kg
Protocol: The presence of IL-10 in undiluted rat serum was measured using the Rat IL-10 Quantikine ELISA kit from RandD Systems (product #: RLB00) as follows: undiluted serum was added to a microplate coated with IL-1β antibody. […] The washing was repeated, and enzyme substrate was added to the plate.

TNF-α = assay: LPS-induced acute lung injury, serum TNF-α ELISA; type: in vivo, Sprague Dawley rats; conditions: UP446 250 mg/kg; SB 500 mg/kg
Protocol: The presence of TNF-α in undiluted rat serum was measured using the rat TNF-α Quantikine ELISA kit from RandD Systems (product #: RTA00) as follows: undiluted serum was added to a microplate coated with TNF-α antibody. […] The washing was repeated, and enzyme substrate was added to the plate.

[7] = system: LPS-induced acute lung injury; assay: LPS-induced acute lung injury, lung histopathology (H&E); type: in vivo, Sprague Dawley rats
Protocol: The severity of lung damage as a result of intratracheal LPS was assessed using HandE-stained lung tissue. The left lobe of the lung was used for the histopathology analysis.

MIP-2/CINC-3 = assay: LPS-induced acute lung injury, lung homogenate MIP-2/CINC-3 ELISA; conditions: UP446 250 mg/kg; SB 500 mg/kg
Protocol: as §1
We sacrificed surviving animals 24 hours after intratracheal LPS administration. At necropsy, the bronchoalveolar lavage (BAL) was collected by intratracheal injection of 1.5 mL PBS into the right lobe of the lung, followed by a gentle aspiration at least 3 times. Pooled, recovered fluid was centrifuged at 1,500 rpm for 10 min at 4° C., and was used to measure cytokines (e.g. IL-6) and pulmonary protein levels. This same right lobe was collected for tissue homogenization from each rat for MIP-2/CINC-3 activity analysis.
The plate was subjected to 5 washes before an enzyme-linked polyclonal CINC-3 was added and allowed to bind for 2 hours. The wells were washed another 5 times before a substrate solution was added to the wells and the enzymatic reaction was allowed to commence for 30 minutes at room temperature protected from light. […] The absorbance of each well was read at 450 nm (with a 580 nm correction) and compared to a standard curve of CINC-3 in order to approximate the amount of CINC-3 in each rat lung homogenate sample.

[8] = 144 hr post LPS (end of observation)

In the case of Oc1cc(O)c2c(c1)OC(c1ccc(O)c(O)c1)C(O)C2 (stereo not shown) [Catechin], the IC50 [1] is listed as 40 µM, the “selectivity for COX-2” value (COX-2) is listed as “no selectivity for COX-2” and the IC50 (COX-1) is listed as 80 µM. For the same compound, the IC50 [2] was 415 µM.
With Oc1ccc(C=Cc2cc(O)cc(O)c2)cc1 [RES, resveratrol] the “reduction in the level of HMGB1 expression vs vehicle-treated hyperoxia and infection” value (HMGB1) was 74.9%, the “HMGB1 expression in airways (Mean ± SD)” value (HMGB1; densitometry arbitrary unit, hyperoxia and PA) was 29.2 ± 16.5 AU and the “bacterial load in the airways (Mean ± SD)” value (Pseudomonas aeruginosa [3]) was 2.4 ± 0.6 ×10^5 CFU/mL. The “BAL Total protein content (Mean ± SE)” value (BAL total protein) was 526.0 ± 15.5 µg/mL and the “bacterial load in lung homogenate (Mean ± SD)” value (Pseudomonas aeruginosa [4]) was 0.02 ± 0.02 ×10^5 CFU/mL.
In the case of CCCC(=O)[O-].[Na+] [Sodium Butyrate], the “reduction of BAL CRP level relative to vehicle” value (CRP) is reported as “moderate reduction in CRP level without statistical significance”, the Mortality rate ([5]; 24 hr post LPS) is reported as 15.38% and the Survival rate ([5]; 24 hr post LPS) is reported as 84.6%. For the same compound, the Mortality rate ([5]; 36 hr post LPS) was 46.15%, the Survival rate ([5]; 36 hr post LPS, listed as SB) was 53.9% and 53.8% and the Mortality rate ([5]; 48 hr post LPS) was 53.85%. For the same compound, the Survival rate ([5]; 48 hr post LPS) was 46.2%, the Mortality rate ([5]; 60 hr post LPS) was 61.54% and the Survival rate ([5]; 60 hr post LPS) was 38.5%. It also gave a Mortality rate ([5]; 72 hr post LPS) of 61.54%, a Survival rate ([5]; 72 hr post LPS, listed as SB) of 38.5% and a Mortality rate ([5]; 96 hr post LPS) of 69.23%. For the same compound, the Survival rate ([5]; 96 hr post LPS) was 30.8%, the Mortality rate ([5]; 120 hr post LPS) was 69.23% and the Survival rate ([5]; 120 hr post LPS) was 30.8%. The Mortality rate [5, 8] was 69.23%, the Survival rate [5, 8] was 30.8% and the Mortality rate [5] was 0.00%. For the same compound, the Survival rate [5] was 100.0%, the “Deceased (total)” value ([5]; up to 144 hours post LPS, N=13) was 9 and the “Survived (total)” value ([5]; up to 144 hours post LPS, N=13) was 4. For the same compound, the “Survival Rate (%) after 82 hr” value [6] was 50%, the “reduction in serum IL-1β level (printed IL-10 for UP446)” value (IL-1β) was 65.3% and the “reduction in serum TNF-α level against the vehicle control” value (TNF-α) was 67.9%. The “changes in the histopathology evaluation relative to vehicle” value ([7]; SB 500 mg/kg, UP446 low-dose 125 mg/kg) was “minimal changes”, the “Overall Lung Damage Severity” value ([7]; Score 0-4, UP446 high dose 250 mg/kg, Sodium Butyrate 500 mg/kg) was 3.05 ± 0.42 and the “Infiltration of PMN cell” value ([7]; scores 0-4, UP446 high dose 250 mg/kg, Sodium Butyrate 500 mg/kg) was 2.75 ± 0.78. For the same compound, the “reduction in lung homogenate CINC-3 level vs vehicle” value (MIP-2/CINC-3) was 17.7%.
